Measurements: article PMC10056636, “3-Amino-Substituted Analogues of Fusidic Acid as Membrane-Active Antibacterial Compounds” (Membranes, 2023)
≈ marks a conversion by molar mass, not a printed value. Where “and” joins values, the source holds several entries; their conditions need not be identical. Equal entries are not always repeated. Where two headings read alike, the source gives them in different places.

Legend:
[1] = Ion permeability and rupture of planar lipid bilayers; details: for concentration up to which addition did not increase the ion permeability of the lipid bilayers: DPhPC uncharged membranes; for Cbr (threshold concentration required to rupture the bilayer): DPhPC, 0.1 M KCl, pH 7.4, 100 mV
Method: Synthetic 1,2-diphytanoyl-sn-glycero-3-phosphocholine (DPhPC) and 1,2-diphytanoyl-sn-glycero-3-phospho-(1′-rac-glycerol) (DPhPG) were purchased from Avanti® Polar Lipids (Avanti Polar Lipids, Inc., Alabaster, AL, USA). A KCl solution (0.1 M) was buffered with 5 mM HEPES, pH 7.4. Bilayer lipid membranes were prepared from DPhPC or DPhPG using a monolayer-opposition technique on a 50 µm-diameter aperture in a 10 µm-thick Teflon film separating the cis- and trans-compartments of the Teflon chamber. Experiments were performed in chambers containing 0.1 M KCl, 5 mM Hepes-KOH, pH 7.4.
The test compounds (4, 20, 22) were added to the cis-chamber as 10 mg/mL solutions in ethanol (to mimic the physiologically relevant conditions) up to the final concentrations and the effects of the compounds on the ion permeability of the model lipid membranes were studied. Ag/AgCl electrodes with 1.5% agarose/2 M KCl bridges were used to apply the transmembrane voltage (V) and measure the transmembrane current (I). ‘Positive voltage’ refers to the case in which the cis-side compartment is positive with respect to the trans-side. All experiments were performed at room temperature.
The current was measured using an Axopatch 200B amplifier (Molecular Devices, LLC, Orlean, CA, USA) in voltage clamp mode. Data were digitized using a Digidata 1440A and analyzed using pClamp 10.0 (Molecular Devices, LLC, Orlean, CA, USA) and Origin 8.0 (OriginLab Corporation, Northampton, MA, USA). The data were acquired at a sampling frequency of 5 kHz using low-pass filtering at 200 Hz.
The threshold concentrations (Cbr) of the derivatives required to rupture the bilayers composed of DPhPC or DPhPG at a transmembrane voltage of 100 mV were determined. Cbr-values were averaged from 3 to 4 bilayers and presented as mean ± standard error (p ≤ 0.05).

[2] = Measurement of the membrane boundary potential (K+-nonactin conductance); details: 0.1 M KCl, pH 7.4, 50 mV
Method: Measurement of the membrane boundary potential. Virtually solvent-free planar lipid bilayers were made of DPhPC or DPhPG as described above. After the membrane was completely formed and stabilized and its stability was assessed by applying voltages in a range from −200 to 200 mV with a 50 mV step for 5–10 min, stock solutions of nonactin A (7 μg/mL in ethanol) were added to the bathing solution (0.1 M KCl, 5 mM HEPES, pH 7.4) in both chamber compartments to obtain a final concentration ranging from 0.1 to 1 μM.
Test derivatives (4, 20, 22) as 10 mg/mL solutions in ethanol were added to both compartments in a concentration range from 5 µg/mL to Cbr in increments of 25 µg/mL.
The conductance of the bilayers was determined by measuring the membrane conductance (G) at a constant transmembrane voltage of 50 mV. In the subsequent calculations, the membrane conductance was assumed to be related to the membrane boundary potential (φb), the potential drop between the aqueous solution and the membrane hydrophobic core, by the Boltzmann distribution (1) Gm/Gm0=exp(eΔφb/kT) where Gm and Gm^0 are the steady-state membrane conductances induced by K^+-nonactin in the presence and absence of test compounds, respectively; e, k, and T have their usual meanings.
The changes in the membrane boundary potential for the defined experimental conditions were averaged from 4 bilayers and presented as mean ± standard deviation (p ≤ 0.05).

[3] = system: Candida albicans (ATCC 90028); test: Antifungal growth inhibition (MIC, CO-ADD); type: cell-based; details: C. albicans, inhibition ≥80%, two replicates per cell
in vitro = type: cell-based, human; details: human, CC50
Method: (§1) HEK293 cells were counted manually in a Neubauer hemocytometer and then plated in 384-well plates containing the test compounds to give a density of 5000 cells per well in a final volume of 50 µL. DMEM supplemented with 10% FBS was used as the growth medium, and the cells were incubated together with the compounds for 20 h at 37 °C in 5% CO2.
(§2) The cytotoxicity (or cell viability) was measured by fluorescence, ex: 560/10 nm, em: 590/10 nm (F560/590), after addition of 5 µL of 25 µg/mL resazurin (2.3 µg/mL final concentration) and after incubation for further 3 h at 37 °C in 5% CO2. The fluorescence intensity was measured using a Tecan M1000 Pro monochromator plate reader with automatic gain control. The CC50 (50% cytotoxicity concentration) values were calculated by curve fitting of inhibition vs. log(concentration) using a sigmoidal dose–response function, with variable fitting values for bottom, top, and slope. In addition, the maximal percentage of cytotoxicity is reported as DMax, indicating any compounds with partial cytotoxicity. The curve fitting was implemented using Pipeline Pilot’s dose–response component. The results were similar to those obtained by other curve-fitting tools, such as GraphPad’s Prism and IDBS’s XlFit. Any value with > indicated samples with no activity (low DMax value) or samples with CC50 values above the maximum tested concentration (higher DMax value).
(§3) In addition, samples were flagged as partially cytotoxic if DMax ≥ 50%, even for CC50 > the maximum tested concentration.
(§4) Tamoxifen served as a positive cytotoxicity standard. Melittin was used as a positive hemolytic standard.

[4] = system: human embryonic kidney cell line HEK293 (ATCC CRL-1573); test: in vitro; type: cell-based; details: human, 20 h
Method: as §1, §2, §3, §4

[5] = system: Cryptococcus neoformans (ATCC 208821); test: Antifungal growth inhibition (MIC, CO-ADD); details: inhibition ≥70%, two replicates per cell
Method: Antimicrobial, cytotoxicity, and hemolytic activity screening of the synthesized derivatives was carried out in the CO-ADD (The Community for Antimicrobial Drug Discovery) (http://www.co-add.org, accessed on 24 November 2020) and included analysis for antibacterial properties, cytotoxicity, and hemolytic activity.
The hit confirmation test included five bacteria, Escherichia coli (ATCC 25922), Klebsiella pneumoniae (ATCC 700603), Acinetobacter baumannii (ATCC 19606), Pseudomonas aeruginosa (ATCC 27853), and Staphylococcus aureus (ATCC 43300), and two fungi, Candida albicans (ATCC 90028) and Cryptococcus neoformans (ATCC 208821). […] The compounds were also screened for hemolysis of human red blood cells (human whole blood, strain ARCBS 5400 00150).
Samples were prepared in DMSO and water to a final testing concentration of 32 µg/mL or 20 µM (unless otherwise indicated in the data sheet) and serially diluted twofold up to 8 times. Each sample concentration was prepared in 384-well plates: non-binding surface plate (NBS; Corning 3640) for each bacterial/fungal strain, tissue-culture treated (TC-treated; Corning 3712/3764) black for mammalian cell types and polypropylene 384-well plates (PP; Corning 3657) for hemolysis assays. The final DMSO concentration was maintained to a maximum of 0.5%. All sample preparation procedures were performed using liquid-handling robots. All screening was performed as two replica (n = 2), with both replicas on different assay plates, but from single plating and performed in a single screening experiment (microbial incubation). In addition, two values are used as quality controls for individual plates: Z′-Factor [1 − (3* (sd(NegCtrl) + sd(PosCtrl))/(average(PosCtrl)-average(NegCtrl)))] and standard antibiotic controls at different concentrations (>MIC and <MIC).
Fungi strains were cultured for 3 days on yeast extract-peptone dextrose (YPD) agar at 30 °C. A yeast suspension of 1 × 10^6 to 5 × 10^6 CFU/mL (as determined by OD530) was prepared from five colonies. The suspension was subsequently diluted and added to each well containing a test compound, giving a final cell density of fungi suspension of 2.5 × 10^3 CFU/mL and a total volume of 50 µL. All plates were covered and incubated at 35 °C for 36 h without shaking.
The absorbance was measured using a Biotek Multiflo Synergy HTX plate reader. In both cases, the percentage of growth inhibition was calculated for each well, using the negative control (media only) and positive control (fungi without inhibitors) in the same plate. […] In addition, the maximal percentage of growth inhibition is reported as DMax, indicating any compounds with marginal activity.
Fluconazole was used as a positive fungal inhibitor standard for C. albicans and C. neoformans. […] The quality control (QC) of the assays was performed using Z′-factors calculated from the negative (media only) and positive controls (bacterial, fungal, or cell culture without inhibitor) and the standards.

[6] = Candida albicans, ATCC90028, read-out: MIC

## COC(=O)/C(CCC=C(C)C)=C1\[C@@H](OC(C)=O)C[C@@]2(C)[C@@H]1C[C@@H](O)[C@@H]1[C@@]3(C)CC[C@H](NCCCNCCCCN)[C@@H](C)C3CC[C@@]12C (stereo partly drawn) [Compound 20, Methyl (2Z)-2-[(3β,4α,8α,11α,14β,16β)-16-(acetyloxy)-3-({3-[(4aminobutyl)amino]propyl}amino)-11-hydroxy-4,8,10,14-tetramethylgonan-17-ylidene]-6-methylhept-5-enoate]
[1]
  concentration up to which addition did not increase the ion permeability of the lipid bilayers: ≤ 275 µg/mL
  Cbr (threshold concentration required to rupture the bilayer): 275 ± 25 µg/mL
[2]; DPhPC
  −Δφb(max) (maximum decrease in the membrane boundary potential): 29 ± 7 mV
[2]; DPhPG
  −Δφb(max) (maximum decrease in the membrane boundary potential): 11 ± 4 mV
[3]
  MIC: 32 µg/mL (≈ 48.6 µM)
[3]; [6]
  MIC: 32 µg/mL (≈ 48.6 µM)
In vitro
  CC50 at 20 h: 15.4 µg/mL (≈ 23.4 µM)
[4]
  CC50: 14.9 µg/mL (≈ 22.6 µM)

## COC(=O)/C(CCC=C(C)C)=C1\[C@@H](OC(C)=O)C[C@@]2(C)[C@@H]1C[C@@H](O)[C@@H]1[C@@]3(C)CC[C@H](NCCCNCCCCNCCCN)[C@@H](C)C3CC[C@@]12C (stereo partly drawn) [Compound 22, Methyl (2Z)-2-[(3β,4α,8α,11α,14β,16β)-16-(acetyloxy)-3-{[3-({4-[(3-aminopropyl)amino]butyl}amino)propyl]amino}-11-hydroxy-4,8,10,14-tetramethylgonan-17-ylidene]-6-methylhept-5-enoate]
[5]; C. neoformans
  MIC: 1.0 µg/mL and 2.0 µg/mL
[5]; Cryptococcus neoformans, ATCC208821, C. neoformans
  MIC: 1 µg/mL (≈ 1.4 µM)
[1]
  concentration up to which addition did not increase the ion permeability of the lipid bilayers: ≤ 250 µg/mL
  Cbr (threshold concentration required to rupture the bilayer): 250 ± 11 µg/mL
[2]; DPhPC
  −Δφb(max) (maximum decrease in the membrane boundary potential): 40 ± 8 mV
[2]; DPhPG
  −Δφb(max) (maximum decrease in the membrane boundary potential): 23 ± 8 mV
[3]
  MIC: 32 µg/mL (≈ 44.8 µM)
[3]; [6]
  MIC: 32 µg/mL (≈ 44.8 µM)
In vitro
  CC50 at 20 h: 18.8 µg/mL (≈ 26.3 µM)
[4]
  CC50: 18.1 µg/mL (≈ 25.3 µM)
